Laboratory results as given in US4431807A, “4-Methyl-5-(unsubstituted and substituted phenoxy)-6-methoxy-8-(aminoalkylamino)quinolines” (priority 1981, dated 1984).
Read-outs that look alike come from different tables or passages of the source.

What was measured:
Plasmodium cynomolgi = experiment: Radical curative (tissue schizonticidal) test, SEATO, P. cynomolgi, rhesus monkey; assay type: in vivo, Plasmodium cynomolgi (strain B) in Indian rhesus monkeys
Protocol: Radical Curative Test in Rhesus Monkeys, SEATO Medical Research Laboratory, Bangkok, John Brown/Richard Andre
This test is designed to evaluate the tissue schizonticidal (radical curative) activity of test compounds. Well-conditioned Indian rhesus monkeys of either sex weighing 2-4 Kg are utilized. Plasmodium cynomolgi (strain B) sporozoites are prepared by grinding heavily infected Anopheles dirus salivary glands in 1:1 monkey serum-saline vehicle.
Monkeys are infected by I.V. injection of 10^6 freshly isolated P. cynomolgi sporozoites on day 0. A rapidly rising parasitemia develops after a 7-9 day prepatent period, and administration of the test drug is initiated when the rising parasite count exceeds 5000 per mm^3 (typically day 10-12). Test drugs are administered orally (by nasogastric intubation) once daily for 7 consecutive days in aqueous solution or, if insoluble, in suspension in 0.3% methylcellulose solution. Chloroquine diphosphate (3.1 mg/kg base/kg orally per day) is always administered concurrently with the test drug for 7 days to eliminate blood schizonts. Thus any tissue schizonticidal activity of the test drug will always be apparent even if it lacks blood schizonticidal activity.
A vehicle control monkey and a positive drug control (primaquine) monkey are included in each group of inoculated monkeys.
The effect of the test drug is determined by counting blood parasites. Parasite counts are made daily through day 20, and every two days thereafter. Initially a clearance of blood parasites is observed due to the blood schizonticidal action of chloroquine. […] If there is no relapse within 20 days of the initial clearance of parasitemia, the monkey is splenectomized and its parasitemia followed for an additional 30 days. If there is no relapse within this period, the experiment is terminated and the monkey is considered "cured".
Primaquine diphosphate cures over 90% of monkeys in this test system when administered at a dose of 1.3 mg/kg of salt per day for 7 days ([…]) in combination with chloroquine.
(§1) The antimalarial activity data acquired by the two test procedures described above are listed in Tables 2 and 3 for the compounds of this invention. In Table 4, the most promising compound of the series, compound 1, is compared directly with primaquine together with some additional test data for compound 1 compared to primaquine. In all the work reported herein primaquine is used in the form of the diphosphate salt. The test data are expressed in the form of the number of cures at a given dose level. Extension of life (mean survival time) relative to the controls is noted in the Rane mouse test; if the mean survival time is extended seven or more days, the compound is considered to be active.
The Molar Primaquine Index is useful in the radical curative test (Table II) as a gauge of the efficacy of a candidate drug relative to primaquine.

in vivo [1] = conditions: rat, po, Acute Oral LD50, rats
in vivo [2] = conditions: guinea pig, po
in vivo [3] = conditions: mouse, po
[4] = Acute oral toxicity, guinea pigs
[5] = Blood schizonticidal (suppressive) test, Rane mouse test, P. berghei; assay type: in vivo, Plasmodium berghei KBG 173 in ICR/HA Swiss mice; conditions: mouse, in vivo, sc
From the text: Blood Schizonticidal Test (Mouse), University of Miami, Rane (Suppressive)
This system is based on comparisons of responses to test compounds by Plasmodium berghei KBG 173 malaria in mice as expressed in mean survival times and the mean survival times of untreated controls. Thus, compounds noted as active produce increases in the survival times of the treated animals that are significant when compared with the survival times of untreated controls. Since an established disease is less sensitive to treatment than a disease in the early stages of development, treatment is withheld until the parasitemia is relatively high in order to insure a more reliable assay of activity and the selection of appropriate compounds for intensive preclinical studies.
Utilizing young ICR/HA Swiss mice and a standard inoculum of Plasmodium berghei KBG 173, it is possible to produce a uniform disease fatal to 100% of untreated animals within 6 to 8 days with a mean survival time of 6.2 days. Test animals weigh from 18 to 22 grams but weight variations in any given experimental or control group are confined to 2-3 grams. All animals in any given test are approximately of the same age. Animals on test are housed in metal-topped plastic cages, given a standard laboratory diet and water ad libitum.
Test animals receive an intraperitoneal injection of 0.5 ml of 1:100 dilution of heparinized heart's blood with a minimum of 90% parasitized cells (4×10^7 cells), drawn from donor mice infected one week earlier with Plasmodium berghei. The donor stran is maintained by weekly passages in separate groups of mice inoculated with a 0.5 ml of 1:500 dilution of heparinized heart's blood.
Test compounds are administered after dissolution or suspension in peanut oil. A single dose is given subcutaneously 72 hours after the mice are infected with Plasmodium berghei. At this time a 10-15 percent parasitemia has developed; the disease is well established but has not produced sufficient debility to alter the response of the host to toxic effects of the drug on test. Since treatment is withheld for three days to permit the infection to become well established and death occurs in untreated controls within 6-8 days, it is believed that this system presents a candidate compound with the maximum challenge. In order to check factors such as changes in the infectivity of Plasmodium berghei or in the susceptibility of the host or to detect technical errors, a group of infected animals treated with pyrimethamine at dose levels producing definite increases in survival time is included as a positive control in every experiment.
In each experiment test compounds are administered in graded doses. […] However, if an active drug is toxic for the host, its toxicity may become a limiting factor; continued increases in dose levels also increase the toxic effects and may result in the diminution of survival times. Deaths prior to the sixth day, when untreated controls begin to die, are regarded as non-parasitic and become the basis for toxicity evaluations. Treated animals are kept under observation for 60 days. Survivors at the end of this period of time are considered as cured.
An increase of 100% in mean survival time is considered the minimum effective response for a candidate compound. In calculating mean survival time, toxic deaths and 60 day survivors are not included.
as §1, with “Extension of life (mean survival time) relative to the controls is noted in the Rane mouse test; if the mean survival time is extended seven or more days, the compound is considered to be active.” left out

Plasmodium berghei = conditions: cited from earlier work
[6] = tested on: Plasmodium vivax, P. malariae and P. ovale malaria; conditions: cited from earlier work

Row | SMILES | % curative (radical curative) (Plasmodium cynomolgi; 0.316 mg/kg/day) [%] | Radical curative activity relative to primaquine (Plasmodium cynomolgi; in words) | Molar Primaquine Index CD 100 (Plasmodium cynomolgi; primaquine CD100 dose / drug CD100 dose, in moles) | LD50 (in vivo [1]; female) [mg/kg] | LD50 (in vivo [1]; male) [mg/kg] | LD50 (in vivo [2]) [mg/kg] | LD50 (in vivo [3]) [mg/kg] | LD50 ratio Compound 1/Primaquine ([4]; guinea pigs, male) | mortality ([5]; 320 mg/kg × 1, s.c., five mice, Table III, read-out: Toxic (converted)) [%] | mortality ([5]; 640 mg/kg salt, s.c., Table IV A-1, read-out: Toxic deaths (converted)) [%] | Radical curative activity (Plasmodium cynomolgi; 0.316 mg/kg/day) | Radical curative test, cures (Plasmodium cynomolgi; 1.0 mg/kg salt, oral, × 7 days, Table IV B-1) | Monkeys cured (Plasmodium cynomolgi; 1.3 mg/kg of salt per day for 7 days (1.0 mg/kg free base) with chloroquine) | Δ MST (Plasmodium berghei; 160 mg/kg, 5 mice, Table I) [days] | Toxic deaths (Plasmodium berghei; 640 mg/kg, 5 mice, Table I) [T] | Suppressive activity (Plasmodium berghei; non-toxic dose levels, prior art comparison) | Radical curative (tissue) activity ([6]; clinical use) | Suppressive activity (blood schizonticide) ([6]; clinical use) | Toxicity in man ([6]; single curative dose) | LD50 ([4]; guinea pig, in vivo, po) [mg/kg]
1 | COc1cc(NC(C)CCCN)c2nccc(C)c2c1Oc1cccc(C(F)(F)F)c1.O=C(O)CCC(=O)O (centres unmarked) [Compound 1, 8-(4-Amino-1-methylbutylamino)-6-methoxy-4-methyl-5-(3-trifluoromethylphenoxy)quinoline Succinate] | 100 | markedly superior to primaquine | 4.8 | 577 | 259 | 174 | 236 | 3.22 | – | – | – | – | – | – | – | – | – | – | – | –
2 | COc1cc(NC(C)CCCN)c2ncccc2c1 (centres unmarked) [Primaquine Diphosphate, 8-((4-amino-1-methylbutyl)amino)-6-methoxy-quinoline, reference compound] | – | – | – | – | – | – | – | – | 40 | 100 | inactive | 1/2 | over 90% | 9 | 5 | very weak activity | effective in clearing the tissues of parasites | relatively ineffective as a blood schizonticide | precludes administration of a single curative dose | 54
